Test systems include DLD-1; LXFL 529; XF498; KM-20L2; M19-MEL; DMS-273; RXF 631; DMS-114; HOP-18.
Assay in all cases: NCI-60 cell line screen, 48 h

We go through 6 compounds from ChEMBL document CHEMBL1201862, “PubChem BioAssay data set” (2004).

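Interpolation was linear, between the two tested concentrations surrounding the appropriate level; five concentrations were tested over 48 hours in 96-well plates. GI50 = concentration required for 50% inhibition of growth.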 Active and inactive are the calls of the source. Cut-off read from the data, not from the text of the source: active = GI50 up to about 1.1 µM and inactive = higher.

Consider `N#CCCN(CCC#N)c1ccc(/C=N\c2ccc(F)cc2)cc1`, for which the GI50 in the assay on DLD-1 is 0.347 µM (active); in the assay on LXFL 529, 0.121 µM (active); in the assay with XF498, > 100 µM (inactive); in the assay on KM-20L2 it was 0.152 µM (active); in the assay with M19-MEL it was 1.63 µM (inactive); in the assay on DMS-273, 4.61 µM (inactive). The GI50 in the assay with RXF 631 was > 45.8 µM (inactive); with DMS-114, 13.8 µM (inactive); with HOP-18, > 100 µM (inactive).

Turning to `C=C1COC(O)(C2OCOC(C3CC(=O)NC(=O)C3)C2O)C1C` (stereo not drawn), the GI50 in the assay on DLD-1 is 0.00416 µM (active); with LXFL 529 it was 0.00222 µM (active); in the assay with XF498, < 0.01 µM (active); with KM-20L2, 0.00281 µM (active); with M19-MEL, 0.00156 µM (active); in the assay with DMS-273, 0.00417 µM (active). For the same compound, the GI50 is 0.0037 µM (active) with RXF 631, 0.00319 µM (active) in the assay with DMS-114 and 0.00357 µM (active) in the assay on HOP-18.

Take `CN(C)C(=N/O)/C(=N\O)N(C)C`: the GI50 with DLD-1, with LXFL 529, in the assay with XF498, in the assay on KM-20L2, in the assay on M19-MEL and in the assay on DMS-273 was > 100 µM (inactive) throughout. Besides, the GI50 in the assay on RXF 631, in the assay with DMS-114 and with HOP-18 was > 100 µM (inactive) throughout.

For the compound `O=C(CCc1nnc(S)[nH]1)NC12CC3CC(CC(C3)C1)C2`, the GI50 with DLD-1, in the assay on LXFL 529, in the assay with XF498, in the assay on KM-20L2, with M19-MEL and with DMS-273 was > 100 µM (inactive) each time. In addition, the GI50 in the assay with RXF 631, with DMS-114 and in the assay on HOP-18 was > 100 µM (inactive) throughout.

Regarding `CCC1(O)C(=O)OCc2c1cc1n(c2=O)Cc2cc3ccc(C=O)cc3nc2-1` (stereo not drawn), the GI50 with DLD-1 was 12.4 µM (inactive); in the assay with LXFL 529, 12.8 µM (inactive); in the assay with XF498 it was 2.7 µM (inactive); in the assay on KM-20L2, 5.68 µM (inactive); with M19-MEL it was 2.89 µM (inactive); in the assay on DMS-273 it was 0.484 µM (active). For the same compound, the GI50 is 2.38 µM (inactive) in the assay on RXF 631, 0.607 µM (active) with DMS-114 and 3.47 µM (inactive) with HOP-18.

Consider `COc1ccc(CC(C)N)cc1` (stereo not drawn) [PARA-METHOXYAMPHETAMINE], for which the GI50 with DLD-1, in the assay on LXFL 529, with XF498, in the assay with KM-20L2, in the assay with DMS-273 and in the assay on RXF 631 was > 100 µM (inactive) in each case. For the same compound, the GI50 in the assay with DMS-114 and in the assay with HOP-18 was > 100 µM (inactive) in each case.
